From patent US11118200B2, “Method for preparing amines from aldehydes and ketones by biocatalysis” (COMMISSARIAT A L'ENERGIE ATOMIQUE ET AUX ENERGIES …, priority 2017, dated 2021)
Marks after values point to notes of the source that are not given here. One block for each molecule: values may come before it.

Assays:
Assay in all cases: Screening of carbonyl-containing compounds with ammonia as amine source (specific activity, absorbance at 340 nm)
enzyme of SEQ ID NO:4 = type: biochemical, Aminomonas paucivorans DSM 12260; set-up: key to Detection of the expected compound, SEQ ID NO: 4: d: detected activity; nd: not detected activity; details: ammonia as amine source; for Specific activity, SEQ ID NO: 4: 0.2 mM NADH (best of NADH/NADPH), 10 mM of carbonyl-containing compound; for Detection of the expected compound, SEQ ID NO: 4: pH 9.5, 25° C.
Protocol: (§1) All the reactions were conducted at 25° C. in spectrophotometric cell (10 mm light path). To a mixture of ammonium formate buffer (2 M NH4HCO2/NH4OH, pH 9.5), NADH or NADPH (0.2 mM) and an appropriate amount of purified enzyme was added. Carbonyl-containing compound (5 or 10 mM) is then added to initiate the reaction (reaction final volume 100 μL). The initial slope measured at 340 nm determined the specific activity of the enzyme according to Beer-Lambert's law and the molar absorptivity of β-NADH (ϵ=6298 M^−1 cm^−1).

enzyme of SEQ ID NO:1 = type: biochemical, Mycobacterium smegmatis; details: 0.2 mM NADPH (best of NADH/NADPH); 10 mM of carbonyl-containing compound; ammonia as amine source
Protocol: (§2) All the reactions were conducted at 25° C. in spectrophotometric cell (10 mm light path). To a mixture of ammonium formate buffer (2 M NH4HCO2/NH4OH, pH 9.5), NADH or NADPH (0.2 mM) and an appropriate amount of purified enzyme was added.

enzyme of SEQ ID NO:3 = type: biochemical, Microbacterium sp. MA1; details: 10 mM of carbonyl-containing compound, ammonia as amine source
Protocol: as §2

enzyme of SEQ ID NO:2 = type: biochemical, Cystobacter fuscus DSM 2262; details: 10 mM of carbonyl-containing compound, ammonia as amine source
Protocol: as §2

enzyme of SEQ ID NO:5 = type: biochemical, Mycobacterium vaccae ATCC 25954; details: mixture NADH/NADPH (0.1 mM each), 5 mM of carbonyl-containing compound
Protocol: as §1, with “To a mixture of ammonium formate buffer (2 M NH4HCO2/NH4OH, pH 9.5), NADH or NADPH (0.2 mM) and an appropriate amount of purified enzyme was added.” left out

enzyme of SEQ ID NO:6 = type: biochemical, Mycobacterium sp. GA-2829; details: mixture NADH/NADPH (0.1 mM each), 10 mM of carbonyl-containing compound
Protocol: as §1, with “To a mixture of ammonium formate buffer (2 M NH4HCO2/NH4OH, pH 9.5), NADH or NADPH (0.2 mM) and an appropriate amount of purified enzyme was added.” left out

[1] = 0.2 mM NADPH (best of NADH/NADPH)
[2] = 0.2 mM NADH (best of NADH/NADPH)

Specific activity, SEQ ID NO: 4 (enzyme of SEQ ID NO:4): 89.1^a mU.mg^-1
Detection of the expected compound, SEQ ID NO: 4 (enzyme of SEQ ID NO:4): d
SMILES: CCCCC=O [drawing 122]

Specific activity, SEQ ID NO: 4 (enzyme of SEQ ID NO:4): 129.6^a mU.mg^-1
Detection of the expected compound, SEQ ID NO: 4 (enzyme of SEQ ID NO:4): d
SMILES: CCC(C)C=O (stereo not shown) [drawing 124]

SMILES: CCCC(C)=O [drawing 142]
Specific activity, SEQ ID NO: 1 (enzyme of SEQ ID NO:1): 9.0^b mU.mg^-1
Specific activity, SEQ ID NO: 3 (enzyme of SEQ ID NO:3; [1]): 51.2^b mU.mg^-1
Specific activity, SEQ ID NO: 2 (enzyme of SEQ ID NO:2; [1]): 6.4^b mU.mg^-1

Specific activity, SEQ ID NO: 1 (enzyme of SEQ ID NO:1): 26.8^b mU.mg^-1
Specific activity, SEQ ID NO: 3 (enzyme of SEQ ID NO:3; [1]): 57.8^b mU.mg^-1
Specific activity, SEQ ID NO: 2 (enzyme of SEQ ID NO:2; [1]): 72.9^b mU.mg^-1
SMILES: CCCCC=O [drawing 146]

Specific activity, SEQ ID NO: 1 (enzyme of SEQ ID NO:1): 75.2^b mU.mg^-1
Specific activity, SEQ ID NO: 3 (enzyme of SEQ ID NO:3; [2]): 159.4^a mU.mg^-1
Specific activity, SEQ ID NO: 2 (enzyme of SEQ ID NO:2; [2]): 231.9^a mU.mg^-1
SMILES: CCC(C)C=O (stereo not shown) [drawing 148]

SMILES: O=C1CCCCC1 [drawing 168]
Specific activity, SEQ ID NO: 5 (enzyme of SEQ ID NO:5): 75.6 mU.mg^-1
Specific activity, SEQ ID NO: 6 (enzyme of SEQ ID NO:6): 13.9 mU.mg^-1

SMILES: CCCC(C)=O [drawing 170]
Specific activity, SEQ ID NO: 5 (enzyme of SEQ ID NO:5): 6.1 mU.mg^-1
